Laboratory results: ChEMBL document CHEMBL5370594, “Novel Compounds for Preventing SARS-CoV-2 Viral Replication and Treating COVID-19” (ACS Med Chem Lett, 2023)

Target: Replicase polyprotein 1ab (Severe acute respiratory syndrome coronavirus 2, UniProt P0DTD1)
Experiment: Inhibition of full-length recombinant SARS-CoV-2 3CL protease expressed in Escherichia coli BL21 (DE3) using FAM- KTSAVLQSGFRKMEK-TAMRA as substrate pre-incubated for 1 hr with compound followed by substrate addition measured after 30 mins by FRET analysis

| Compound | IC50 [nM] |
| --- | --- |
| CC(C)(C)[C@H](NC(=O)C(F)(F)F)C(=O)N1C[C@H]2[C@@H]([C@H]1C(=O)NN(C[C@@H]1CCNC1=O)C(=O)CCl)C2(C)C | 6 |
| CC[C@H](C)[C@H](NC(=O)C(F)(F)C(F)(F)F)C(=O)N1C[C@@H]2CCC[C@@H]2[C@H]1C(=O)NN(C[C@@H]1CCNC1=O)C(=O)[C@H](F)Cl | 6 |
| CCC(CC)[C@H](NC(=O)C(F)(F)F)C(=O)N1C[C@H]2[C@@H]([C@H]1C(=O)NN(C[C@@H]1CCNC1=O)C(=O)[C@H](F)Cl)C2(C)C | 7 |
